In US11976068B2 (CHIMERIX, INC., priority 2015, dated 2024):
“And” between values parts separate entries of the source, which are not always exact repeats. Identical values can stand only once.

Tests used:
[1] = system: cleaved cytokeratin 18 (cCK18); assay: Phase I trial, serum M30 assay; format: in vivo, human
Description: Serum levels of cleaved cytokeratin 18 (cCK18) were assessed using the M30 assay and serum levels of total cytokeratin 18 (CK18) were assessed using the M65 assay (Perviva A.B., Sweden). Assessments of other tumor-specific markers were also evaluated per standard of care.
Given the heterogeneity of the tumor types in the enrolled patients, no widely used biomarker was available to uniformly assay all patient samples. In particular, the serum M30 assay is able to detect a caspase-cleaved form of cytokeratin-18 that occurs during apoptosis, which is useful in a heterogeneous study of solid tumors because most solid tumors express cytokeratin-18. The M30 sandwich ELISA has been used extensively in clinical trials as biomarkers of cell death induced by a variety of different cancer chemotherapeutic agents in a spectrum of different solid tumors. In addition to the serum M30 assay, the M65 sandwich ELISA assay, which has also been used in clinical studies to detect increases in total cytokeratin 18 that can occur with tumor necrosis and disease progression, was used to differentiate tumor apoptosis from necrosis.

[2] = system: 1020 genetically annotated cell lines; assay: Tumor type in vitro sensitivity, GDSC cell lines, cell viability at 72 hours; format: cell-based; settings: tertile of average IC50
Excerpt: The estimated IC50 values were averaged across multiple cell lines for each tumor type. Tumor types were categorized into three different groups that represented tertiles of average IC50 values.

[3] = system: TRAIL; assay: Phase I trial, serum TRAIL ELISA; format: in vivo, human
[4] = system: human foreskin fibroblasts (HFF), human fetal lung fibroblast (MRC-5) cells, human lung fibroblast cell line (WI-38); settings: 72 hours
[5] = system: human colon cancer cell line (HCT116), breast tumor cell line (MDA-MB-231), human primary glioblastoma cell line (U87); assay: Cell viability, tumor cells (FIG. 1)
[6] = Phase I trial, plasma pharmacokinetics of oral ONC201; settings: for AUC(0-t): AUClast; for Vd/F: Vz/F
[7] = target: T1, human BCRP (Homo sapiens, UniProt Q9UNQ0); assay: BCRP inhibition, bidirectional permeability of prazosin in MDCKII-BCRP monolayers; settings: at 200 micromolar
T1 sequence (Q9UNQ0 1-655): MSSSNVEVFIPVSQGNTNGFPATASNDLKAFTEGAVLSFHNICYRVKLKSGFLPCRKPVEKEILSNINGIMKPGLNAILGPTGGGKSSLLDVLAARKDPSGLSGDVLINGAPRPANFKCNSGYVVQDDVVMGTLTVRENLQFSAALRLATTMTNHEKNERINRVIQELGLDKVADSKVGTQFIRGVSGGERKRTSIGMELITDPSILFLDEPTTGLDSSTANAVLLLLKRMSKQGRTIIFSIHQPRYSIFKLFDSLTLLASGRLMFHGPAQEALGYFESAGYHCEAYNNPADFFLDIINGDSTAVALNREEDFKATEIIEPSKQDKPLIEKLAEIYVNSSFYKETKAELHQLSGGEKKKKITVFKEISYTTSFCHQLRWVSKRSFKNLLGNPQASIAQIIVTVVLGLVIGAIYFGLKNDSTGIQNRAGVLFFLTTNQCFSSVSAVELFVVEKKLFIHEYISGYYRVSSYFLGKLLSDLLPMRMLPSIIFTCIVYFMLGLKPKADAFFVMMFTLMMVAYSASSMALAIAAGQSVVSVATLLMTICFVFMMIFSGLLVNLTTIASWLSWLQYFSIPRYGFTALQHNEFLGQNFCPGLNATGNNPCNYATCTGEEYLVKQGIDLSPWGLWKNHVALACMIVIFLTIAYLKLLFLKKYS

[8] = N=6 patients receiving 625 mg ONC201 every three weeks
[9] = human, in vivo, 625 mg, Mean, N=6 patients receiving 625 mg ONC201 every three weeks
[10] = human, in vivo, 625 mg, Median, N=6 patients receiving 625 mg ONC201 every three weeks
[11] = human, in vivo, 625 mg, Geo. Mean, N=6 patients receiving 625 mg ONC201 every three weeks

SMILES: Cc1ccccc1CN1C(=O)C2=C(CCN(Cc3ccccc3)C2)N2CCN=C12 [ONC201, 7-benzyl-4-(2-methylbenzyl)-2,4,6,7,8,9-hexahydroimidazo [1,2-a]pyrido[3,4-e]pyrimidin-5(1H)-one]
- M30 Induction (>50%) ([1]; Pat # 1, NSCLC, 125 mg): No
- M30 Induction (>50%) ([1]; Pat # 2, Appendiceal cancer, 250 mg): No
- M30 Induction (>50%) ([1]; Pat # 3, Uterine cancer, 375 mg): Yes
- M30 Induction (>50%) ([1]; Pat # 4, Renal cancer, 500 mg): No
- M30 Induction (>50%) ([1]; Pat # 5, Breast cancer, 625 mg): Yes
- M30 Induction (>50%) ([1]; Pat # 6, Prostate adenocarcinoma, 625 mg): Yes
- M30 Induction (>50%) ([1]; Pat # 7, Small cell lung cancer, 625 mg): Yes
- M30 Induction (>50%) ([1]; Pat # 8, Colon adenocarcinoma, 625 mg): Yes
- M30 Induction (>50%) ([1]; Pat # 9, Spindle cell sarcoma, 625 mg): No
- M30 Induction (>50%) ([1]; Pat # 10, Ovarian, 625 mg): No
- number of patients with induction in the M30 assay ([1]; dose escalation phase, after a single dose, most often on day 21 post-treatment): Four
- Tumor Type In Vitro Sensitivity ([2]; tumor type Breast cancer): Low
- Tumor Type In Vitro Sensitivity ([2]; tumor type Colon adenocarcinoma): High
- Tumor Type In Vitro Sensitivity ([2]; tumor type NSCLC): Med
- Tumor Type In Vitro Sensitivity ([2]; tumor type Ovarian): Med
- Tumor Type In Vitro Sensitivity ([2]; tumor type Prostate adenocarcinoma): High
- Tumor Type In Vitro Sensitivity ([2]; tumor type Renal cancer): Med
- Tumor Type In Vitro Sensitivity ([2]; tumor type Small cell lung cancer): High
- Tumor Type In Vitro Sensitivity ([2]; tumor type Spindle cell sarcoma): Low
- Tumor Type In Vitro Sensitivity ([2]; tumor type Uterine cancer): Med
- increase in serum TRAIL ([3]; half of the patients, mostly peaked within the first 24 hours of drug administration): ~20%
- number of patients with serum TRAIL induction ([3]; serum soluble TRAIL): 2
- cell viability of normal cells ([4]; about 1-5 mg/mL compound (1)): at least 75%
- viability of normal cells ([4]; beyond about 5 mg/mL compound (1)): about 75%
- viability at 5000 µg/mL ([5]; Homo sapiens, 72 h, read-out: viability of tumor cells): < 25%
- viability of tumor cells ([5]; about 1-5 mg/mL compound (1), 72 hours): ≤ 50%
- AUC, Min [6, 8]: 13868 h · ng/m
- CL/F, Geo. Mean [6, 8]: 25.41 L/h
- CL/F, Max [6, 8]: 45.07 L/h
- CL/F, Mean [6, 8]: 27.19 L/h
- CL/F, Median [6, 8]: 24.83 L/h
- CL/F, Min [6, 8]: 14.03 L/h
- Cmax, Max [6, 8]: 7470 ng/mL
- Cmax, Min [6, 8]: 1530 ng/mL
- Tlag, Max [6, 8]: 0.30 h
- Tlag, Mean [6, 8]: 0.05 h
- Tlag, Median [6, 8]: 0.00 h
- Tlag, Min [6, 8]: 0.00 h
- Tmax, Max [6, 8]: 3.95 h
- Tmax, Min [6, 8]: 0.37 h
- t1/2, Max [6, 8]: 12.55 h
- t1/2, Min [6, 8]: 7.71 h
- λZ, Geo. Mean [6, 8]: 0.073 h⁻¹
- λZ, Max [6, 8]: 0.090 h⁻¹
- λZ, Mean [6, 8]: 0.074 h⁻¹
- λZ, Median [6, 8]: 0.072 h⁻¹
- λZ, Min [6, 8]: 0.055 h⁻¹
- concentration at 24 h ([6]; human, in vivo): 0.9 µM
- Vd ([6]; human, in vivo, 625 mg): 381 L
- AUC ([6]; human, in vivo, 625 mg, AUC, Geo. Mean, N=6 patients receiving 625 mg ONC201 every three weeks): 24600 ng·h/mL
- AUC ([6]; human, in vivo, 625 mg, AUC, Mean, N=6 patients receiving 625 mg ONC201 every three weeks): 26300 ng·h/mL
- AUC ([6]; human, in vivo, 625 mg, AUC, Median, N=6 patients receiving 625 mg ONC201 every three weeks): 25600 ng·h/mL
- AUC(0-t) [6, 9]: 25500 ng·h/mL
- AUC(0-t) [6, 10]: 24300 ng·h/mL
- Cmax ([6]; human, in vivo, 625 mg, Cmax, Geo. Mean, N=6 patients receiving 625 mg ONC201 every three weeks): 2890 ng/mL
- Cmax ([6]; human, in vivo, 625 mg, Cmax, Mean, N=6 patients receiving 625 mg ONC201 every three weeks): 3310 ng/mL
- Cmax ([6]; human, in vivo, 625 mg, Cmax, Median, N=6 patients receiving 625 mg ONC201 every three weeks): 2720 ng/mL
- AUC ([6]; human, in vivo, 625 mg, Mean AUC, top dose cohort (625 mg)): 26300 ng·h/mL
- Tmax [6, 11]: 1.34 h
- Tmax [6, 9]: 1.79 h
- Tmax [6, 10]: 1.91 h
- Vd/F [6, 11]: 348 L
- Vd/F [6, 9]: 381 L
- Vd/F [6, 10]: 404 L
- Cmax ([6]; human, in vivo, 625 mg, mean Cmax, top dose cohort (625 mg), first dose): 3310 ng/mL
- half-life ([6]; human, in vivo, 625 mg, mean t1/2, top dose cohort (625 mg)): 9.62 h
- half-life ([6]; human, in vivo, 625 mg, t1/2, Geo. Mean, N=6 patients receiving 625 mg ONC201 every three weeks): 9.49 h
- half-life ([6]; human, in vivo, 625 mg, t1/2, Mean, N=6 patients receiving 625 mg ONC201 every three weeks): 9.62 h
- half-life ([6]; human, in vivo, 625 mg, t1/2, Median, N=6 patients receiving 625 mg ONC201 every three weeks): 9.6 h
- Cmax ([6]; human, in vivo, Cmax, plasma, as quoted for the CYP margin): 9 µM
- AUC ([6]; human, in vivo, po, 625 mg, AUC, oral ONC201, PK analysis): 25000 ng·h/mL
- Cmax ([6]; human, in vivo, po, 625 mg, Cmax, 625 mg (RP2D) orally every 3 weeks): 1500 ng/mL to 7500 ng/mL and 3.9 µM to 19.4 µM
- half-life ([6]; human, in vivo, po, 625 mg, half-life, oral ONC201, PK analysis): 9.6 h
- dose at which plasma concentrations / systemic exposure (AUC, Cmax) saturated ([6]; oral, dose escalation 125-625 mg): 375 mg
- inhibitor of BCRP [7]: inhibitor
